Assay results from patent US7361735B2, “LITAF binding site peptides and methods of using the same” (Trustees of Boston University, priority 2003, dated 2008).

Legend:
[1] = tested on: THP-1 cells; assay: ELISA of hTNF-α after Chariot delivery of peptide; format: cell-based, human; conditions: PMA-matured THP-1; Chariot/peptide 1, 10, 100 ng/ml or 1 μg/ml; 24 hours; ELISA of supernatant
Description: FIG. 5 is a graphical representation of the production of TNF-α in THP-1 cells after transfection of peptide A, B, C, or HA with Chariot as described herein. The concentration of active of TNF-α was induced by various concentrations of peptide and measured by duplicate ELISA tests at the same condition and graphed.
THP-1 cells were induced to maturation by addition of […] (Sigma) and incubated at 37° C., 5% CO2 for 20 hrs, then washed with PBS twice, and stimulated (delivered) with Chariot/peptide complex of various concentrations of either peptide A or B or C or HA in a 96-well plate at 2×10^4 cells/well as indicated in the text. After 24 hrs of incubation at 37° C., 5% CO2, culture supernatants were harvested, centrifuged at 1,500×g to remove cell debris, then TNF-α was measured by ELISA (ABRAXIS, Hatboro, Pa.) and quantified on a Model 680 Microplate Reader (BioRad).
Therefore, peptides A, B, and C, were synthesized based on the amino acid sequence of hLITAF. […] After pretreatment with PMA, peptides A, B, C, or HA were introduced into THP-1 cells using Chariot, as described herein, in concentrations of 1, 10, 100 ng/ml or 1 μg/ml. After 24 hours, culture supernatants were harvested and TNF-α was quantified by ELISA. […] In contrast, peptide B increased TNF-α secretion by as much as 2.4 fold over unstimulated levels.

[2] = tested on: wtTNFP (−991 to 1); assay: Luciferase reporter assay, wild type full-length TNF-α promoter, THP-1; format: cell-based, human; conditions: 1 μg/ml peptide via Chariot or 100 ng/ml LPS, normalized by β-gal, peptide B compared with HA-stimulated cells
Description: (§1) FIGS. 6a and 6b are graphical representations of the transcriptional activity of a series of deletion constructs of TNF-α promoter DNA. FIG. 6a depicts the activity measured due to either the promoter wtTNFβ (−991 to 1) or mtTNFβ1 (−991 to 1Δ−515 to −511). pGL3-basic transfected cell as unstimulated control was used. After transfection of DNAs for 3 hrs, the cells were washed with PBS twice, and stimulated with 100 ng/ml LPS (E. coli) or transfected with Chariot/peptide complex of 1 μg/ml of either peptide A, B, C, or HA. Triplicate assays were performed. Values are normalized by β-gal production and graphed. FIG. 6b depicts the activity measured due to the promoter mtTNFβ2 (−550 to −487 plus TATA box) or mtTNFβ3 (−550 to −487Δ−515 to −511 plus TATA box). LPS or peptides as stimuli and controls were used at the same condition as described above.
(§2) The following series of hTNF-α promoter DNA fragments were subcloned (FIG. 1b) into the pGL3-Basic vector, which has a promoterless and enhancerless luciferase reporter gene, available from Pharmacia: 1. wtTNFP (−991 to 1) was generated by PCR with primer pairs: 5′-[…]-3′ (SEQ ID NO: 20′) and 5′-[…]-3′(SEQ ID NO: 21′). 2. mtTNFP1 (−991 to 1Δ−515 to −511). The first in-frame mutant hTNF-α promoter was generated by PCR with primer pairs, 5′-[…]-3′(SEQ ID NO: 20) and 5′-[…] (SEQ ID NO: 22). The second mutant DNA was generated by PCR with primer pairs, 5′-[…]-3′ (SEQ ID NO: 23) and 5′-[…]-3′ (SEQ ID NO: 21). Both first and second DNA fragments above were purified and diluted as template to 1 ng/reaction and finally amplified by PCR with primer pairs, 5′-[…]-3′ (SEQ ID NO: 20) and 5′-[…]-3′ (SEQ ID NO: 21). […]
(§3) THP-1 cells (5×10^6/well) were induced to maturation by addition of […] (Sigma) and incubated at 37° C., 5% CO2 for 20 hrs, washed with PBS twice, co-transfected with 1 μg DNAs by using Fugene 6 (Roche Molecular Biochemicals) for 3 hrs, washed with PBS, then individually transfected with Chariot/peptide complex of 1 μg/ml peptide A, B, C or HA or stimulated with 100 ng/ml LPS (E. coli) for 3 hrs, washed with PBS, incubated at 37° C., 5% CO2, overnight. […] Luciferase activity in the lysates was measured using a commercial kit (Luciferase Reporter Assay System, Promega) and normalized by β-gal assay in the same lysates as described (McClane et al., Hum. Gene Ther. 10:739-746, 1997).
(§4) To determine whether the short sequence CTCCC (−515 to −511) in the hTNF-a promoter is responsible for hLITAF binding activity, a series of hTNF-α promoter/reporter constructs were cloned (see FIG. 1b) and individually transiently transfected into THP-1 cells. […] TNF-α promoter activity was subsequently analyzed using the luciferase assay. […]

[3] = tested on: mtTNFP1 (−991 to 1Δ−515 to −511); assay: Luciferase reporter assay, full-length TNF-α promoter lacking CTCCC, THP-1; format: cell-based, human; conditions: 1 μg/ml peptide via Chariot or 100 ng/ml LPS, FIG. 6a
Description: as §1, §2, §3, §4

[4] = tested on: mtTNFP2 (−550 to −487 plus TATA Box); assay: Luciferase reporter assay, short TNF-α promoter fragment with LITAF binding site, THP-1; format: cell-based, human; conditions: 1 μg/ml peptide via Chariot or 100 ng/ml LPS, in comparison with the HA control, FIG. 6b
Description: as §1, §2, §3, §4

[5] = tested on: mtTNFP3 (−550 to −487Δ−515 to −511 plus TATA Box); assay: Luciferase reporter assay, short TNF-α promoter fragment lacking LITAF binding site, THP-1; format: cell-based, human; conditions: 100 ng/ml LPS, FIG. 6b
Description: as §1, with “above. […]” for “above.”
as §4

[6] = tested on: COS-7 cells (wild-type p53); assay: Western blot of p53 accumulation after LPS; format: cell-based; conditions: LPS 500 ng/ml for 4 hrs
Description: (§5) FIGS. 7a and 7b show the analysis of the accumulation of p53 and induction of LITAF mRNA. […] 60 μg of crude cell lysate was loaded per lane and separated on an 8% SDS-PAGE, which were then transferred to Immobilon-P. The protein blots were probed individually with monoclonal antibodies specific for p53 (DO-1, Santa cruz) or with goat polyclonal antibodies for actin (C-11, Santa cruz). p53 proteins were expressed well in lanes 2 through 4. […] Cells were incubated with 100 or 500 ng/ml of LPS for 4 or 24 hrs. Total cellular RNA was purified by using the Oligotex mRNA Kit (Qiagen). mRNA was size-fractionated on a denaturing formaldehyde-agarose gel (1.1%) and transferred onto a Hybond-N^+ membrane (Amersham). These filters were hybridized with an γ-^32P ATP-labeled DNA probe and then autoradiographed with BIOMAX MR film (Kodak).
(§6) The accumulation of p53 after LPS stimulation was investigated.

[7] = tested on: COS-7 cells (wild-type p53); assay: Northern blot of LITAF transcript after LPS, COS-7; format: cell-based; conditions: LPS 500 ng/ml for 4 hrs
Description: as §5, §6

[8] = tested on: WTK-1 cells (p53-deficient cell line); assay: Northern blot of LITAF transcript after LPS, WTK-1; format: cell-based; conditions: WTK-1 p53-deficient cells
Description: as §5, §6

[9] = tested on: COS-7 cells; assay: TUNEL analysis of DNA fragmentation of apoptotic cells; format: cell-based
Description: FIG. 8 depicts the TUNEL analysis of DNA fragmentation of apoptotic COS-7 cells in response to LPS. After LPS stimulation, cells were fixed in 4% methanol-free formaldehyde solution for 30 min at room temperature, then permeated with 0.1% Triton X-100 for 2 min at 4° C. After washing with PBS, the samples were stained according to the manufacturer's recommended protocol for TUNEL (Promega.). The fragmentation of apoptotic COS-7 cell nuclei was analyzed by fluorescence microscopy (panels g, f, or h). The corresponding field was also observed by standard phase contrast microscopy (panels a, b, or c).
Since the induction of LITAF follows the accumulation of p53 (FIG. 7a), the DNA fragmentation of apoptotic COS-7 cells after 4 hrs with LPS stimulation was investigated.

[10] = tested on: wtTNFβ, TNF-α promoter from −991 to 1; assay: Luciferase reporter assay, wild-type TNF-α promoter, WTK-1; format: cell-based; conditions: WTK-1 cells; normalized to β-gal; LITAF overexpressed alone without LPS stimulation
Excerpt: (§7) FIG. 10 is a graphical representation of the analysis of LITAF function in luciferase reporter constructs. The series of TNF-α promoter DNA fragments were subcloned into the pGL3 basic vector (Pharmacia), a promoterless and enhancerless luciferase reporter gene. One construct, named wtTNFβ, contained TNF-α promoter from −991 to 1. Another one, mtTNFβ1, was a mutant inserted with the promoter from −991 to 1, but lacking the LITAF binding site. WTK-1 cells (grown to 85% confluence) in a 6-well plate at 1.2×10^5 cells/well were co-transfected with 1 μg DNAs including pCMV-LITAF recombinant vector, pVMVβ-gal and pGL3 basic as control by Fugene 6 (Roche Molecular Biochemicals) for 3 hrs, washed with PBS twice, then individually stimulated with LPS or Chariot/peptide complex of 100 ng/ml peptide B (peptide fragment of LITAF representing aa 152-228) or HA as control for 3 hrs, washed with PBS, incubated at 37° C., 5% CO2, o/n. The β-galactosidase gene was included in all transfections. The cells were harvested and lysed approximately 12 hrs after transfection. The promoter activity from each lysate sample was measured using the luciferase reporter assay system (Promega) and normalized to β-gal expression in the same sample, as described in the methods section below.
(§8) The activation of TNF-α gene expression by LITAF was investigated. […]

[11] = tested on: mtTNFβ1, promoter from −991 to 1 lacking the LITAF binding site; assay: Luciferase reporter assay, mutant TNF-α promoter lacking LITAF binding site, WTK-1; format: cell-based; conditions: WTK-1 cells; LPS stimulation
Excerpt: as §7, §8

LSSSFTPGGGSALVVS [peptide C]
TNF-α secretion over unstimulated levels [1]: did not induce any significant TNF-α secretion | hTNF-α promoter activity (luciferase expression), wild type promoter [2]: did not result in any significant increase | promoter activity (luciferase), mutant TNF-α promoter lacking the CTCCC motif [3]: no appreciable induction | expression of luciferase, shorter reporter plasmid containing the LITAF binding site [4]: unable to activate

Lipopolysaccharide [LPS]
hTNF-α promoter activity (luciferase expression), wild type promoter [2]: similarly activated | promoter activity (luciferase), mutant TNF-α promoter lacking the CTCCC motif [3]: similarly activated | expression of luciferase, shorter reporter plasmid containing the LITAF binding site [4]: strongly dependent on the presence of the LITAF binding site | activation of shorter reporter plasmid lacking the LITAF binding site [5]: activation not observed | inducible p53 protein [6]: detected | LITAF transcript [7]: detected | LITAF transcription [8]: did not induce LITAF transcription | apoptosis (TUNEL) ([9]; 100 ng/ml of LPS): did not induce apoptosis | TUNEL-positive (apoptotic) cells ([9]; 500 ng/ml LPS for at least 4 hrs): significantly increased | TNF-α promoter activity (luciferase), wild-type promoter/reporter plasmid [10]: similarly activated | TNF-α promoter activity (luciferase), mutant promoter/reporter plasmid [11]: similarly activated

SQTWREPGAAGSPFHL [peptide B]
TNF-α secretion over unstimulated levels [1]: ≤ 2.4 fold | hTNF-α promoter activity (luciferase expression), wild type promoter [2]: ~2 fold | promoter activity (luciferase), mutant TNF-α promoter lacking the CTCCC motif [3]: no appreciable induction | expression of luciferase, shorter reporter plasmid containing the LITAF binding site [4]: 2.3 fold

SYYTQPAPIPNNNPIT VQTVY (SYYTQPAPIPNNNPITVQTVY) [peptide A]
TNF-α secretion over unstimulated levels [1]: did not induce any significant TNF-α secretion | hTNF-α promoter activity (luciferase expression), wild type promoter [2]: did not result in any significant increase | promoter activity (luciferase), mutant TNF-α promoter lacking the CTCCC motif [3]: no appreciable induction | expression of luciferase, shorter reporter plasmid containing the LITAF binding site [4]: unable to activate

YPYDVPDYASL [HA, reference compound]
TNF-α secretion over unstimulated levels [1]: did not induce any significant TNF-α secretion
